Source: PubChem BioAssay (NCI)
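Growth conditions: 96-well plates. Treatment: test compound, 48 hours, 5 concentrations. Analysis: linear interpolation between bracketing concentrations; unreached endpoints set to highest concentration. TGI denotes the concentration required for complete inhibition of growth.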

Key:
Assay in all cases: DTP human tumour cell line panel, 48 h
[1] = system: HCT-15 colon
[2] = system: HCC-2998 colon
[3] = system: MDA-N
[4] = system: SK-MEL-28 melanoma
[5] = system: HCT-116 colon
[6] = system: U251 CNS
[7] = system: MCF7 breast
[8] = system: HS 578T breast
[9] = system: OVCAR-3 ovarian
[10] = system: HOP-92 NSCLC
[11] = system: EKVX NSCLC
[12] = system: MALME-3M melanoma
[13] = system: SN12C renal
[14] = system: COLO 205 colon
[15] = system: MDA-MB-435
[16] = system: M14 melanoma
[17] = system: SF-268 CNS
[18] = system: TK-10 renal
[19] = system: NCI-H522 lung
[20] = system: NCI/ADR-RES ovarian
[21] = system: HT29 colon
[22] = system: T-47D breast
[23] = system: A498 renal
[24] = system: DU-145 prostate
[25] = system: SK-MEL-5 melanoma
[26] = system: HL-60(TB) leukemia
[27] = system: SK-MEL-2 melanoma
[28] = system: MOLT-4 leukemia
[29] = system: IGROV1 ovarian
[30] = system: A549 NSCLC
[31] = system: SR leukemia
[32] = system: SW-620 colon
[33] = system: UACC-257 melanoma
[34] = system: UACC-62 melanoma
[35] = system: ACHN renal
[36] = system: KM12 colon
[37] = system: SK-OV-3 ovarian
[38] = system: SNB-75 CNS
[39] = system: OVCAR-5 ovarian
[40] = system: CCRF-CEM leukemia
[41] = system: OVCAR-8 ovarian
[42] = system: NCI-H460 lung
[43] = system: 786-0 renal
[44] = system: SF-539 CNS
[45] = system: LOX IMVI melanoma
[46] = system: MDA-MB-231 breast
[47] = system: NCI-H23 lung
[48] = system: RXF 393 renal
[49] = system: CAKI-1 renal
[50] = system: HOP-62 NSCLC
[51] = system: SNB-19 CNS
[52] = system: PC-3 prostate
[53] = system: UO-31 renal
[54] = system: OVCAR-4 ovarian
[55] = system: BT-549 breast
[56] = system: K-562 leukemia
[57] = system: SF-295 CNS
[58] = system: NCI-H226 lung

Q: How did the TGI [1] turn out when `CCNCCCNc1c2ccccc2nc2ccccc12` was run?
A: 1.54 µM

Q: What about the TGI [2] of the same compound?
A: 0.643 µM

Q: And the TGI [3]?
A: 1.26 µM

Q: And the TGI [4]?
A: 1.48 µM

Q: And the TGI [5]?
A: 8.36 µM

Q: And the TGI [6]?
A: > 100 µM

Q: And the TGI [7]?
A: 0.625 µM

Q: And the TGI [8]?
A: 3.13 µM

Q: What about the TGI [9] of the same compound?
A: 2 µM

Q: What about the TGI [10] of the same compound?
A: 3.11 µM

Q: What about the TGI [11] of the same compound?
A: 21.2 µM

Q: And the TGI [12]?
A: 2.26 µM

Q: And the TGI [13]?
A: 2.2 µM

Q: What about the TGI [14] of the same compound?
A: 0.761 µM

Q: And the TGI [15]?
A: 1.77 µM

Q: What about the TGI [16] of the same compound?
A: 0.95 µM

Q: What about the TGI [17] of the same compound?
A: 4.47 µM

Q: And the TGI [18]?
A: 16 µM

Q: And the TGI [19]?
A: 0.7 µM

Q: And the TGI [20]?
A: 10.2 µM

Q: And the TGI [21]?
A: > 100 µM

Q: What about the TGI [22] of the same compound?
A: 3.35 µM

Q: What about the TGI [23] of the same compound?
A: 3.2 µM

Q: And the TGI [24]?
A: 4.01 µM

Q: And the TGI [25]?
A: 1.47 µM

Q: And the TGI [26]?
A: 54.9 µM

Q: What about the TGI [27] of the same compound?
A: 1.95 µM

Q: What about the TGI [28] of the same compound?
A: > 100 µM

Q: What about the TGI [29] of the same compound?
A: 4.3 µM

Q: And the TGI [30]?
A: 3.38 µM

Q: And the TGI [31]?
A: 1.83 µM

Q: And the TGI [32]?
A: 1.46 µM

Q: And the TGI [33]?
A: 1.7 µM

Q: What about the TGI [34] of the same compound?
A: 1.62 µM

Q: And the TGI [35]?
A: 0.47 µM

Q: What about the TGI [36] of the same compound?
A: 2.04 µM

Q: And the TGI [37]?
A: 6.55 µM

Q: What about the TGI [38] of the same compound?
A: 1.58 µM

Q: What about the TGI [39] of the same compound?
A: 1.04 µM

Q: And the TGI [40]?
A: 10.1 µM

Q: And the TGI [41]?
A: 3.7 µM

Q: And the TGI [42]?
A: 0.585 µM

Q: And the TGI [43]?
A: 5.39 µM

Q: And the TGI [44]?
A: 1.21 µM

Q: And the TGI [45]?
A: 1.08 µM

Q: And the TGI [46]?
A: 2.5 µM

Q: And the TGI [47]?
A: 2.14 µM

Q: What about the TGI [48] of the same compound?
A: 2.83 µM

Q: And the TGI [49]?
A: 1.23 µM

Q: And the TGI [50]?
A: 2.37 µM

Q: What about the TGI [51] of the same compound?
A: 2.98 µM

Q: What about the TGI [52] of the same compound?
A: 0.816 µM

Q: What about the TGI [53] of the same compound?
A: 2.63 µM

Q: And the TGI [54]?
A: 3.2 µM

Q: And the TGI [55]?
A: 10.5 µM

Q: And the TGI [56]?
A: 1.64 µM

Q: And the TGI [57]?
A: 2.81 µM

Q: For `O=c1n(-c2ccc(Cl)c(Cl)c2)c(=O)n(-c2ccc(Cl)c(Cl)c2)c(=O)n1-c1ccc(Cl)c(Cl)c1`, which TGI [1] is on record?
A: 6.98 µM

Q: And the TGI [2]?
A: > 46.7 µM

Q: And the TGI [3]?
A: 8.02 µM

Q: And the TGI [4]?
A: 15.1 µM

Q: What about the TGI [5] of the same compound?
A: 5.5 µM

Q: And the TGI [6]?
A: 10.6 µM

Q: And the TGI [7]?
A: 5.03 µM

Q: What about the TGI [8] of the same compound?
A: 10 µM

Q: And the TGI [9]?
A: 13.5 µM

Q: And the TGI [10]?
A: 2.37 µM

Q: And the TGI [12]?
A: > 27.8 µM

Q: What about the TGI [13] of the same compound?
A: > 31.6 µM

Q: And the TGI [14]?
A: 1.95 µM

Q: And the TGI [15]?
A: 16.5 µM

Q: And the TGI [16]?
A: 13.1 µM

Q: And the TGI [17]?
A: 6.69 µM

Q: What about the TGI [18] of the same compound?
A: 17.3 µM

Q: And the TGI [19]?
A: 11.5 µM

Q: What about the TGI [20] of the same compound?
A: 11.2 µM

Q: What about the TGI [21] of the same compound?
A: 10.9 µM

Q: What about the TGI [22] of the same compound?
A: 12.6 µM

Q: What about the TGI [23] of the same compound?
A: 7.52 µM

Q: And the TGI [24]?
A: 12 µM

Q: And the TGI [25]?
A: 3.44 µM

Q: What about the TGI [26] of the same compound?
A: > 24.2 µM

Q: What about the TGI [27] of the same compound?
A: 4.53 µM

Q: And the TGI [28]?
A: 4.6 µM

Q: What about the TGI [29] of the same compound?
A: 15 µM

Q: And the TGI [58]?
A: 9.61 µM

Q: What about the TGI [30] of the same compound?
A: 6.37 µM

Q: What about the TGI [31] of the same compound?
A: 8.09 µM

Q: What about the TGI [32] of the same compound?
A: 10.2 µM

Q: What about the TGI [33] of the same compound?
A: 5.73 µM

Q: What about the TGI [34] of the same compound?
A: 11.2 µM

Q: And the TGI [35]?
A: 6.43 µM

Q: And the TGI [36]?
A: 7.14 µM

Q: And the TGI [37]?
A: 3.16 µM

Q: What about the TGI [38] of the same compound?
A: 7.75 µM

Q: And the TGI [39]?
A: 8.91 µM

Q: And the TGI [40]?
A: 4.5 µM

Q: And the TGI [41]?
A: 8.7 µM

Q: What about the TGI [42] of the same compound?
A: 10.7 µM

Q: What about the TGI [43] of the same compound?
A: 7.84 µM

Q: And the TGI [44]?
A: 2.77 µM

Q: What about the TGI [45] of the same compound?
A: 7.16 µM

Q: What about the TGI [46] of the same compound?
A: 4.32 µM

Q: And the TGI [47]?
A: 4.91 µM

Q: And the TGI [48]?
A: 7.85 µM

Q: And the TGI [49]?
A: 7.07 µM

Q: And the TGI [50]?
A: 12.4 µM

Q: What about the TGI [51] of the same compound?
A: 14.2 µM

Q: And the TGI [52]?
A: 4.72 µM

Q: And the TGI [53]?
A: 9.73 µM

Q: And the TGI [54]?
A: 12.1 µM

Q: And the TGI [55]?
A: 8.49 µM

Q: And the TGI [56]?
A: 9.05 µM

Q: What about the TGI [57] of the same compound?
A: 6.62 µM
